The values that follow come from PMC3005896 (Autoimmune Diseases, 2010).

Where two headings read alike, the source gives them in different places. Bounds are passed on as bounds.

The target in data set [1] is T1, PPAR-δ (Homo sapiens, UniProt Q03181).
T1 sequence (Q03181 211-441 limits assumed): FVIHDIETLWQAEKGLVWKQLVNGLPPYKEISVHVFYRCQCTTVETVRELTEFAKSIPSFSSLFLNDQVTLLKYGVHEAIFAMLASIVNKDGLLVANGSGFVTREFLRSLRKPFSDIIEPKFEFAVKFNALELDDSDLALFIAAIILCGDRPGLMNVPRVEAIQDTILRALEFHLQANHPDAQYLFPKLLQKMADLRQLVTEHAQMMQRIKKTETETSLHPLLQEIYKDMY
The experiment in a line: Gene Blazer β-lactamase transactivation assay, PPAR-δ. It counts as cell-based. As for the experimental part: (§1) Cells were incubated overnight with the various compounds and luciferase activity was then determined in cell lysates. Transactivation activity of the human mineralocorticoid receptor (MR) and peroxisome proliferator-activated receptors (PPAR-γ and PPAR-δ) used the fluorimetric Gene Blazer β-lactamase assay system (InVitrogen) following the manufacturer's instructions. Assays were conducted on 384-well plates using a fluorogenic substrate (CCF4-AM, InVitrogen).

Data set [2] deals with ERα/β. Conditions: read-out: Transactivation EC50, T47D-kBluc; ERE-luciferase; cells express ERα and ERβ; mean ± SEM (n). Here is the method:
as §1

The subject of data set [3] is PLP(139–151)-induced EAE in female SJL/J mice. The following applies: 40 mg/kg soluble formulation (cyclodextran) s.c. daily from onset.
For data set [4], the system named is glucocorticoid receptor (GR). The following applies: data not shown. Here is the method: as §1
Data set [5] has as its target PPAR-γ (Homo sapiens, UniProt P37231). The following applies: data not shown. Here is the method:
as §1

Data set [6] deals with T2, human mineralocorticoid receptor (MR) (Homo sapiens, UniProt P08235).
T2 sequence (P08235 726-984 limits assumed): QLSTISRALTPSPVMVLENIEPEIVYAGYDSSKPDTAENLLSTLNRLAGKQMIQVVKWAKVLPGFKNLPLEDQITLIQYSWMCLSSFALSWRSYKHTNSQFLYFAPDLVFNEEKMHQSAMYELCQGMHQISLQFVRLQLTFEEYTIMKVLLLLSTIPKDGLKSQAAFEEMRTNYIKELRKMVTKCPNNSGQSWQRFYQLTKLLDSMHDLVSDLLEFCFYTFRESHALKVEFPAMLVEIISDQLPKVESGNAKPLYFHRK
The experiment in a line: Gene Blazer β-lactamase transactivation assay, MR. The format is cell-based. Conditions: data not shown. Here is the method:
as §1

The conditions of data set [7]: humans, injection of 100–200 mg suspension formulation, for several weeks; ref Stickney et al., in preparation; cited from earlier work.
A short description of data set [8]: in vivo. Conditions: mouse.
The subject of data set [9] is PLP(139–151)-induced EAE in female SJL/J mice. The text has this:
Mice Female SJL/J mice (6 to 8 weeks of age; Charles River Italia, Udine, Italy) were maintained in a pathogen-free vivarium at the University of Catania, School of Medicine (Catania, Italy) receiving ad libitum sterilized food and water, and were adapted to the ambient environment for at least 7 days before the start of the study. Animal care and use was in compliance with all applicable regulations for the protection of animals used for experimental and other scientific purposes.
Disease symptoms were monitored daily and scored in a blinded manner using the following scale: 0: no illness, 1: flaccid tail, 2: moderate paraparesis, 3: severe paraparesis, 4: moribund state, 5: death. Mice were randomized to each experimental group before immunization to induce EAE. […] Statistical analysis of cumulative clinical scores was performed by ANOVA analysis for unpaired data. A P-value <.05 was considered to be statistically significant. For statistical analysis, the mice that succumbed to EAE were assigned 5 only for the day of death and then were deleted from the experimental group.

The test system of data set [10] is LPS-induced shock in CD1 mice. Conditions: for Serum levels of TNFα: male CD-1 mice, LPS 0.5 mg. As for the experimental part: Six-week-old CD1 mice (Charles River, Calco, Italy) were kept under standard laboratory (nonspecific pathogen free) conditions at the University of Catania, School of Medicine, and were housed in a controlled environment and provided with standard rodent chow and water. Animal care and use was in compliance with all applicable regulations on protection of animals used for experimental and other scientific purposes.
To induce lethal endotoxemia, the mice were injected i.p. with 1 mg LPS (Sigma Chimica, Milan, Italy, code L6011, Lot K4096). […] In some studies (performed by Harbor Biosciences) male mice (n = 4 per group) were used and serum was taken 2 hours after LPS (0.5 mg) challenge, to measure levels of TNFα by ELISA.
All P-values of less than .05 were considered significant. For statistical analysis each group is compared to that of vehicle-treated control.

In data set [11] the test system is CAR-induced pleurisy in CD1 male mice. Conditions: 40 mg/kg suspension s.c. 24 h and 1 h before CAR, vs vehicle.
The mark [12] stands for this setting: soluble formulation (cyclodextran), Harbor Biosciences, unpublished observations.

Chain of PPAR-γ (P37231 238-505 limits assumed): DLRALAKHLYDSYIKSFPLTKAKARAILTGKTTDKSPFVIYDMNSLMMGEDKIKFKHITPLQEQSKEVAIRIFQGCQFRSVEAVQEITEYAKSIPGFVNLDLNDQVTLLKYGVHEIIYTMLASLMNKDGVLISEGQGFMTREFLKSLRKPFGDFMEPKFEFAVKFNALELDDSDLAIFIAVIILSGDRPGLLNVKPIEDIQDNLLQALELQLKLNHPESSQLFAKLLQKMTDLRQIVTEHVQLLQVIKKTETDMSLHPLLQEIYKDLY

Take `CCCc1c(OCCCOc2ccc(OCC(=O)O)cc2)ccc(C(C)=O)c1O` [L165,041, reference compound]: in [1] (reference compound), the half-maximal effective concentration (EC50) amounted to 0.0011 µM.
With `C[C@]12CCC(=O)C[C@@H]1CC[C@@H]1[C@@H]2CC[C@]2(C)[C@@H](O)CC[C@@H]12` [DHT, dihydrotestosterone], the EC50 in [2] came out at […].
Take `C[C@]12CC[C@H]3[C@@H](CC=C4C[C@@H](O)CC[C@@]43C)[C@@H]1CC[C@@H]2O` [5-AED, androst-5-ene-3β,17β-diol]: in data set [1] (data not shown), the “Transactivation of PPAR-δ” value is “does not transactivate”. Moreover, the “EAE clinical score vs vehicle” value in data set [3] was “no significant differences”. Moreover, the “Transactivation of human glucocorticoid receptor” value in data set [4] was “does not transactivate”. In addition, the “Transactivation of PPAR-γ” value in data set [5] is “does not transactivate”. Also, the “Transactivation of human mineralocorticoid receptor” value in [6] was “does not transactivate”. Moreover, in [7], the “Sustained serum levels of 5-AED” value is on record as ~ 30 ng/mL. The Cmax in data set [8] was below 5 µg/mL; in data set [8] (40 mg/kg), around 0.1 µg/mL. Further, the concentration at 96 h in data set [8] (40 mg/kg) was around 0.01 µg/mL. Also, the Mortality in data set [9] (0.4 mg/kg suspension s.c., after day 17) was 6/10. In addition, the Cumulative disease score in data set [9] (0.4 mg/kg suspension s.c., surviving mice only) is 14.5 ± 3.7; in [9] (4 mg/kg suspension s.c. from Day 8 to Day 30, trend, vehicle 25.4 ± 9.3) it was 18.1 ± 9.9; in [9] (40 mg/kg suspension s.c. from Day 8 to Day 30, vehicle 25.4 ± 9.3), 14.4 ± 9.1. The Lethality result in [9] (4 mg/kg suspension s.c.) is reported as “No lethality”; in data set [9] (40 mg/kg suspension s.c.), “No lethality”; in data set [10] (40 mg/kg s.c. given 4 hours after LPS, data not shown), 100%; in data set [10] (40 mg/kg s.c. given 8 hours after LPS, data not shown), 100%; in [10] (40 mg/kg s.c. given 24 hours after LPS, data not shown) it was 100%; in data set [10] (40 mg/kg s.c. given 24 hours before LPS (1 mg i.p.), 72 h, vehicle 100%) it was 50%. Also, the “Incidence of EAE” value in data set [9] (all groups (0.4, 4.0, 40 mg/kg)) came out at 100%. This molecule had a Minimally effective dose in data set [9] (suspension s.c.) of 4 to 40 mg/kg. Besides, the “Time to Cmax” value was “within one hour” (40 mg/kg as suspension, mice) and “within minutes” under setting [12]. Besides, the “Time to complete clearance” value under setting [12] was 8 to 12 h. Further, the “Serum levels of TNFα” value is “not effective” in [10] (0.4 mg/kg s.c.); “not effective” in data set [10] (4.0 mg/kg s.c.); “significantly (P < .05) reduced” in [10] (40 mg/kg suspension s.c., vs vehicle, P < .05). Moreover, the “IL-6 level in pleural rinse” value in [11] (at 4 and 5 hours) is on record as “significantly reduced”. For the same molecule, the “TNFα level in pleural rinse” value in data set [11] (at 4 hours) is listed as “significantly reduced”.

For orientation: EC50 means the concentration at which the effect is half-maximal. What is called Cmax is the maximum level reached in the sampled fluid or tissue.
